Read-outs that look alike come from different tables or passages of the source.
Key:
[1] = target: T1, NNMT (Homo sapiens (Human), UniProt P40261); assay: biochemical; type: biochemical
[2] = target: T1, NNMT; assay: Fluorescence polarization (FP)-based competition assay with probe II138; type: binding; settings: read-out: Ki (FP Assay)
[3] = SAHH-coupled Assay IC50, 10 μM SAM, 10 μM nicotinamide (Km), 0.1 μM NNMT

T1 sequence (P40261 whole entry): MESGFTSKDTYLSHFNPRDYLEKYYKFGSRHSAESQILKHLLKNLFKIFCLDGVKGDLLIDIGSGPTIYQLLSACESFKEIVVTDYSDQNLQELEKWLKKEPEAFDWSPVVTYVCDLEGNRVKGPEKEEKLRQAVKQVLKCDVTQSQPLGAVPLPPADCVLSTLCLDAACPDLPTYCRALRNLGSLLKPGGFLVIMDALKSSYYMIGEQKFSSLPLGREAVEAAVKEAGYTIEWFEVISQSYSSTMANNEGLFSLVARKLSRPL

| IC50 [1, 3] | Ki [2] | IC50 ([1]; 10 μM SAM, 10 μM nicotinamide (Km), 0.1 μM NNMT, read-out: SAHH-coupled Assay IC50) | IC50 ([1]; 10 μM SAM, 10 μM nicotinamide (Km), 0.1 μM NNMT, read-out: SAHH-coupled assay IC50) | Ki ([1]; read-out: Ki, app) | IC50 ([1]; substrate and SAM concentration at 4 Km, read-out: SAHH-coupled Assay IC50) | SMILES |
| --- | --- | --- | --- | --- | --- | --- |
| 7700 nM | – | – | – | – | – | CCN(CC#Cc1cccc(C(N)=O)c1)C[C@H]1C[C@@H](n2ccc3c(Cl)ncnc32)[C@H](O)[C@@H]1O [II542, 3-(3-((((1R,2R,3S,4R)-4-(4-chloro-7H-pyrrolo[2,3-d]pyrimidin-7-yl)-2,3dihydroxycyclopentyl)methyl)(ethyl)amino)prop-1-yn-1-yl)benzamide] |
| – | 70 ± 8 nM | 25 ± 7 nM | 25 ± 7 nM | 4 ± 0.02 nM | 93 ± 7 nM | CC(=O)N(CC#Cc1cccc(C(N)=O)c1)C[C@H]1C[C@@H](n2ccc3c(N)ncnc32)[C@H](O)[C@@H]1O [II642, 3-(3-(N-(((1R,2R,3S,4R)-4-(4-amino-7H-pyrrolo[2,3-d]pyrimidin-7-yl)-2,3-dihydroxycyclopentyl)methyl)acetamido)prop-1-yn-1-yl) benzamide] |
| 7600 nM | – | – | – | – | – | CC(=O)N(CC#Cc1cccc(C(N)=O)c1)C[C@H]1O[C@@H](n2cnc3c(N)ncnc32)[C@H](O)[C@@H]1O [II661, 3-(3-(N-(((2R,3S,4R,5R)-5-(6-amino-9H-purin-9-yl)-3,4-dihydroxytetrahydrofuran-2-yl)methyl)acetamido)prop-1-yn-1-yl)benzamide] |

From patent publication US20250017936A1, “CELL-POTENT BISUBSTRATE INHIBITORS FOR NICOTINAMIDE N-[…] (NNMT) AND USES THEREOF” (priority 2021, published 2025)
